Test results reported in patent publication US20080200477A1, “Retinoid-Containing Compositions Having Reduced Irritation Effect” (priority 2004, published 2008).

Legend:
interleukin-8 (IL8) = test: Retinol-induced interleukin-8 release from reconstituted epidermis (ELISA on culture medium); assay type: cell-based, human; conditions: for % reduction of IL8 release Control + retinol: measured after 48 hours and 96 hours (time not given)
Method: Samples of reconstituted epidermis were topically applied with gel/emulsions containing retinol (0.075 wt. %) and a series of test ingredients. The release of interleukin-8 (IL8) was measured in the culture medium after 48 hours by an ELISA method. No significant loss of viability was evidenced. No release of interleukin-1 (IL1) was observed.
Samples of reconstituted epidermis were topically applied with gel/emulsions containing retinol (0.075 wt. %) and one of the following test ingredients: Dragocalm® (at 1.5 wt. % and 3.5 wt. %), dipotassium glycyrrhenzinate (at 0.5 wt. %), Rona Care® ectoine (at 0.1 wt. %, 0.25 wt. %), and a willow herb (0.1 wt. %)/oat straw (0.1 wt. %) extract combination. The release of IL8 was measured in each culture medium after 48 hours and 96 hours by an ELISA method. No significant loss of viability was evidenced. No release of IL1 was observed.

[1] = tested on: retinol induced skin redness; test: Repeated patch test on backs of human volunteers, cumulated redness score; assay type: in vivo; conditions: for inhibition of retinol-induced redness (in words): concentration not given, retinol 0.1 wt. %, human volunteers; for Score (cumulated redness score): 48 hours patches, three times a week during three weeks
Method: Based on the foregoing results, Dragocalm®, ectoine, and dipotassium glycyrrhenzinate were tested further on human volunteers for their potential to reduce retinol induced skin redness. Patches containing formulas comprising either retinol (0.1 wt. %) or retinol (0.1 wt. %) plus the test ingredient Dragocalm®, ectoine, or dipotassium glycyrrhenzinate were applied during 48 hours to the backs of volunteers three times a week during three weeks. Redness induced by the patches was examined and scored after each patch removal. Every individual score for each product were cumulated to give the final scores.

[2] = retinol 0.1 wt. % + test ingredient 0.5 wt. %
[3] = retinol 0.1 wt. % + test ingredient 0.25 wt. %

Dipotassium Glycirrhezinate [reference compound]
% Reduction of Interleukin-8 compared with Control + Retinol (interleukin-8 (IL8); Example 1, test ingredient 0.2 wt. % in gel/emulsion with retinol 0.075 wt. %, 48 hours): −29% | reduction (inhibition) of IL8 release (interleukin-8 (IL8); Example 2, 0.5 wt. %, retinol 0.075 wt. %): 63% | % reduction of IL8 release Control + retinol (interleukin-8 (IL8); Example 2, test ingredient 0.5 wt. %, retinol 0.075 wt. %): −63% | inhibition of retinol-induced redness (in words) [1]: not effective | % reduction (of redness score vs Control + Retinol 0.1 wt. %) [1, 2]: −21% | Score (cumulated redness score) [1, 2]: 17

CC1=NC(C(=O)O)CCN1 (centres unmarked) [Rona Care ® Ectoin, 1,4,5,6-tetrahydro-2-methyl-4-pyrimidine carboxylic acid]
decrease of retinol induced IL8 release (interleukin-8 (IL8); Example 1, 1 wt. %, retinol 0.075 wt. %, 48 hours): 55% | % Reduction of Interleukin-8 compared with Control + Retinol (interleukin-8 (IL8); Example 1, test ingredient 1 wt. % in gel/emulsion with retinol 0.075 wt. %, 48 hours): −55% | activity on IL8 release (in words) (interleukin-8 (IL8); Example 2, 0.1 wt. %, retinol 0.075 wt. %): no activity | reduction (inhibition) of IL8 release (interleukin-8 (IL8); Example 2, 0.25 wt. %, retinol 0.075 wt. %): 60% | % reduction of IL8 release Control + retinol (interleukin-8 (IL8); Example 2, test ingredient 0.1 wt. %, retinol 0.075 wt. %): −31% | % reduction of IL8 release Control + retinol (interleukin-8 (IL8); Example 2, test ingredient 0.25 wt. %, retinol 0.075 wt. %): −60% | inhibition of retinol-induced redness (in words) [1]: reduced redness but to a lesser extent | % reduction (of redness score vs Control + Retinol 0.1 wt. %) [1, 3]: −56% | Score (cumulated redness score) [1, 3]: 9.5

CC(C)=CCC[C@](C)(O)[C@@H]1CC=C(C)CC1 [Alpha Bisabolol, reference compound]
% Reduction of Interleukin-8 compared with Control + Retinol (interleukin-8 (IL8); Example 1, test ingredient 0.05 wt. % in gel/emulsion with retinol 0.075 wt. %, 48 hours): −4%

CCCCCCCCCCCCCCCCCCOC(=O)[C@@]1(C)CC[C@]2(C)CC[C@]3(C)C(=CC(=O)[C@@H]4[C@@]5(C)CC[C@H](O)C(C)(C)[C@@H]5CC[C@]43C)[C@@H]2C1 [Stearyl Glycirrhezinate, reference compound]
% Reduction of Interleukin-8 compared with Control + Retinol (interleukin-8 (IL8); Example 1, test ingredient 0.1 wt. % in gel/emulsion with retinol 0.075 wt. %, 48 hours): 26%
